One data set deals with T1, Aβ 40 wild type peptide (Homo sapiens, UniProt P05067).
T1 construct: The amide I band for the Aβ 40 wild type peptide; gift of Dr. Jorge Ghiso
In words: Dissolution of Aβ 40 wild type peptide by metallized chelator, FTIR amide bands. The format is biochemical. The following applies: Aβ40 wt dissolved in 500 mM chelator/heavy water solution. The procedure: (§1) Each metal salt-chelator solution was prepared with a slight excess of metal salt. Chelator-dissolved proteins were then lyophilized twice to eliminate water and resuspended in 200 μl aliquots of heavy water for spectral analysis.
(§2) Fourier Transform Infrared (FTIR) Spectroscopy: Metal chelator-dissolved β-sheet samples were injected into a sample cell with calcium fluoride windows and 0.05 mm path length. The instrument (Nicolet Magna JR 560 Spectrometer, ThermoNicolet, Madison, Wis.) resolution was 4 cm^−1; 1000 scans were collected.
(§3) Spectral subtraction as well as curve fitting and second derivative analysis of the amide I bands was carried out with the software program, Grams/32 Spectral Notebase, version 4.02, level 1 (ThermoNicolet, Madison, Wis.). Curvefitting parameters were not restricted; the fraction of Lorentzian line shape was allowed to vary. The second derivative analysis was carried out using a Savitsky-Golay algorithm, using either a third or fourth degree polynomial fit.

Data set [1] has as its target T2, Aβ 40 E22Q mutant peptide (Homo sapiens, UniProt P05067, E693Q).
T2 sequence (P05067 672-711 E693Q): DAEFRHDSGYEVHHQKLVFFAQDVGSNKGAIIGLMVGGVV
In words: Dissolution of Aβ 40 E22Q mutant peptide by metallized chelator, FTIR amide bands. To be noted: Aβ40 E22Q dissolved in 500 mM chelator/heavy water solution. Format: biochemical. The procedure: as §1, §2, §3

For the next data set, the target named is T3, Aβ 42 wild type peptide (Homo sapiens, UniProt P05067).
T3 construct: The amide I band for the Aβ 42 wild type peptide in the solid state; gift of Dr. Jorge Ghiso
In words: Dissolution of Aβ 42 wild type peptide by metallized chelator, FTIR amide bands. The format is biochemical. To be noted: Aβ42 wt dissolved in 500 mM chelator/heavy water solution. The procedure:
as §1, §2, §3

The target of data set [2] is T4, Aβ 42 E22Q mutant peptide (Homo sapiens, UniProt P05067, E693Q).
T4 sequence (P05067 672-713 E693Q): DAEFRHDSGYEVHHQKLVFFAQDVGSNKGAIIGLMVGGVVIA
In words: Dissolution of Aβ 42 E22Q mutant peptide by metallized chelator, FTIR amide bands. Format: biochemical. To be noted: Aβ42 E22Q dissolved in 500 mM chelator/heavy water solution. The protocol: as §1, §2, §3

A further data set concerns the target Aβ 40 E22Q (Homo sapiens, UniProt P05067, E693Q). The format is biochemical. The following applies: Aβ 40 E22Q incubated at room temperature for 67 hours, pH 7.4.
A further data set concerns wool. To be noted: wool tertiary structure is a bundle of α-helices; selectivity. The text has this:
Wool's tertiary structure is a bundle of α-helices. […] The polyproline II conformation of collagen places its dihedral angles in the immediate vicinity of those for the β-sheet structure on a Ramachandran plot. Thus, choice of cation confers selectivity.

Another data set deals with B. mori fibroin. The following applies: for Dissolution of fibroin: basic 500 mM solution, 1:1 molar ratio.
Data set [3] concerns tau paired helical filaments. The following applies: basic 500 mM solution, 1:1 molar ratio.
The conditions of data set [4]: Environmental Protection Agency (1999); cited from earlier work.
In the next data set the test system is human erythrocytes. To be noted: Funder et al., 1978; cited from earlier work.

Structures are written as SMILES. Several values for one entry are separate records, joined by “and”; a condition that tells them apart may be missing. Equal values may be shown once. Marks after values point to notes of the source that are not given here.

In the case of `NCCN.[Cu+2].[OH-].[OH-]` [Cu^2+en, Cu^2+ ethylene diamine hydroxide], the “Amide I peak of metal chelator-dissolved peptide” value (at Aβ 40 wild type peptide; in data set [1]; on Aβ 42 wild type peptide; in data set [2]) was 1673 cm⁻¹ throughout. Moreover, the “Amide II peak of metal chelator-dissolved peptide” value is 1594 cm⁻¹ on Aβ 40 wild type peptide; 1590 cm⁻¹ in [1]; 1534 cm⁻¹ and 1591 cm⁻¹ on Aβ 42 wild type peptide; 1590 cm⁻¹ in data set [2]. In addition, the “Thioflavin T fluorescence yield less than that of the chelator-free aliquot” value at Aβ 40 E22Q is 27%. Moreover, the Dissolution of wool entry in the data set with wool was “not found to dissolve”. Further, the Dissolution of fibroin entry in the data set with B. mori fibroin is recorded as “can be dissolved”. Further, in the data set with B. mori fibroin (judged by eye, more rapid than in the Li^+ ethylene diamine bromide solution), the “Speed of the dissolution process for the silk or fibroin fiber” value is “instantaneous on contact”. The “Dissolution of paired helical filaments” value in [3] was “can be dissolved”. Moreover, the “Toxicity, EPA determination” value in data set [4] is reported as “safe for human consumption”.
`NCCN.[Br-].[Li+]` [Li^+en, Li^+ ethylene diamine bromide]: the “Amide I peak of metal chelator-dissolved peptide” value was 1629 cm⁻¹ and 1646 cm⁻¹ and 1673 cm⁻¹ at Aβ 40 wild type peptide; 1621‡ cm^−1 and 1673 cm^−1 in [1]; 1626‡ cm^−1 and 1673 cm^−1 on Aβ 42 wild type peptide; 1625‡ cm^−1 and 1673 cm^−1 in data set [2]. The “Amide II peak of metal chelator-dissolved peptide” value at Aβ 40 wild type peptide came to 1562 cm⁻¹; in [1] it was 1531 cm⁻¹; on Aβ 42 wild type peptide, 1562 cm⁻¹; in [2], 1531 cm⁻¹. Besides, the Dissolution of wool result in the data set on wool is on record as “not found to dissolve”. In the data set with B. mori fibroin, the Dissolution of fibroin entry was “can be dissolved”. The “Dissolution of paired helical filaments” value in [3] is on record as “can be dissolved”.
As for `O=C([O-])O.[Li+]` [Lithium bicarbonate], the “Increase of lithium influx into human erythrocytes over lithium chloride” value in the data set with human erythrocytes is recorded as “twelve-fold”.

The values are drawn from patent US20090233893A1, “Methods of Dissolving Beta-Sheet Proteins and Uses Thereof” (priority 2006, published 2009).
